Patent US20240208992A1, “MACROCYCLES AS CFTR MODULATORS” (Idorsia Pharmaceuticals Ltd, priority 2021, published 2024)

Biological target: human F508del-CFTR (Homo sapiens, UniProt P13569, DEL508-508)
Assay: F508del-CFTR cell surface expression (corrector activity), DiscoveRx ß-galactosidase complementation chemiluminescence assay in recombinant U2OS cell line;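 also: U2OS cells co-expressing ProLink-tagged F508del-CFTR and a membrane-anchored enzyme acceptor, where more surface CFTR restores β-galactosidase activity measured by chemiluminescence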
Conditions: U2OS cells, 16h compound incubation; for EC50: EC50, F508del-CFTR cell surface expression, geomean of several measurements; for Emax: U2OS, in relation to the Emax of the corrector lumacaftor (=100%), arithmetic mean

Chain of human F508del-CFTR (P13569 with tags, fused parts or gaps DEL508-508): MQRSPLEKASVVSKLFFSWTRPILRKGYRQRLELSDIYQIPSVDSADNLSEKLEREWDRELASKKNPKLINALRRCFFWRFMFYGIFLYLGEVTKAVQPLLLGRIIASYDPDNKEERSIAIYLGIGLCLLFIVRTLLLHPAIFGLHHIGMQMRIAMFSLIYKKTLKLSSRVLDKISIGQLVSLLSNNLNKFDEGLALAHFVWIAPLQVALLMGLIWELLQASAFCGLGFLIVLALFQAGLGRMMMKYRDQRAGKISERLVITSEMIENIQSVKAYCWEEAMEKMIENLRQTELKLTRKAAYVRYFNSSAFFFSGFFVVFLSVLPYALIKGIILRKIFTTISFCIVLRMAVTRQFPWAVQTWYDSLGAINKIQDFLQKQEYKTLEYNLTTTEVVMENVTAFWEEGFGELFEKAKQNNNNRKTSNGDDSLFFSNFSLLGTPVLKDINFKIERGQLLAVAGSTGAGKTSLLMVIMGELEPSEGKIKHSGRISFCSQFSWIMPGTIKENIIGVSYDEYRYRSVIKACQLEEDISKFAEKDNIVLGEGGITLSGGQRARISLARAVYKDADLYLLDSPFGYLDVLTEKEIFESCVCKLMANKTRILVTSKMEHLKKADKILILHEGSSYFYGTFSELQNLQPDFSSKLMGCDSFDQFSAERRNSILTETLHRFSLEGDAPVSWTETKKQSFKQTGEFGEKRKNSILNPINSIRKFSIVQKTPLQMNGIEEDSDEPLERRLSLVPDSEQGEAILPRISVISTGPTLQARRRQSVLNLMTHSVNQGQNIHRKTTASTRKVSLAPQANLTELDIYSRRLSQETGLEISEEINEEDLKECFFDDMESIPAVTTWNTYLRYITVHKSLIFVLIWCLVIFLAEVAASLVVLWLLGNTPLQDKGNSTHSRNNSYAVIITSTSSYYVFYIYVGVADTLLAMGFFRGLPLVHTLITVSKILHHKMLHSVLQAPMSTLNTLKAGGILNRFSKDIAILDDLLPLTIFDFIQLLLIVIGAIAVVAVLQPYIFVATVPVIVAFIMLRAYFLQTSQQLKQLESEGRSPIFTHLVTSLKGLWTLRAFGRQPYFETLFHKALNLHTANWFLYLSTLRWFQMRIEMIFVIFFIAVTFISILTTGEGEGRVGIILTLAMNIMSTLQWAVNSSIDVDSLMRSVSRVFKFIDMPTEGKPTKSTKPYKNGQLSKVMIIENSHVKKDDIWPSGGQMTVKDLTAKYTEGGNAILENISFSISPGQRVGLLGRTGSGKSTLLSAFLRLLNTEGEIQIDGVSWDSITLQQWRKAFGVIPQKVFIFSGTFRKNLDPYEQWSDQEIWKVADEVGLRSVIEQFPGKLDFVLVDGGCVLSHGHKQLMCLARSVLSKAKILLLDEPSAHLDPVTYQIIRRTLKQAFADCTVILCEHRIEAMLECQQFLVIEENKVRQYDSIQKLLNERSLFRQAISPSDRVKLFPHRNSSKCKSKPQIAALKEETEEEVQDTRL

| EC50 | Emax | SMILES |
| --- | --- | --- |
| 191 nM | 276% | CC(C)C[C@H]1C(=O)N2CCCC[C@@H]2C(=O)N[C@H](Cc2ccccc2)COc2ccc3ncc(F)cc3c2C(=O)N[C@H](C(=O)NCCc2cnn(C3CC3)n2)CC(=O)N1C [Example 805, (9S,13S,19aR,22R)-22-benzyl-N-(2-(2-cyclopropyl-2H-1,2,3-triazol-4-yl)ethyl)-5-fluoro-13-isobutyl-12-methyl-7,11,14,20-tetraoxo-7,8,9,10,11,12,13,14,17,18,19,19a,20,21,22,23-hexadecahydro-16H-pyrido[2′,1′:6,7][1]oxa[4,7,10,14]tetraazacycloheptadecino[16,17-f]quinoline-9-carboxamide] |
| 233 nM | 394% | COc1nc(C)cc2c1C(=O)N[C@H](C(=O)NCCn1nnc(C3CC3)n1)CC(=O)N(C)[C@@H](CC(C)C)C(=O)N(C)[C@H](CC(F)(F)F)C(=O)N[C@H](Cc1ccccc1)CO2 [Example 806, (3R,6R,9S,13S)-3-benzyl-N-(2-(5-cyclopropyl-2H-tetrazol-2-yl)ethyl)-9-isobutyl-16-methoxy-7,10,18-trimethyl-5,8,11,15-tetraoxo-6-(2,2,2-trifluoroethyl)-2,3,4,5,6,7,8,9,10,11,12,13,14,15-tetradecahydropyrido[3,4-p][1]oxa[4,7,10,14]tetraazacycloheptadecine-13-carboxamide] |
| 206 nM | 358% | Cc1cc(CCNC(=O)[C@@H]2CC(=O)N(C)[C@@H](CC(C)C)C(=O)N(C)[C@H](Cc3nc(-c4ccc(F)cn4)no3)C(=O)N[C@H](Cc3ccccc3)COc3ccc4ncc(F)cc4c3C(=O)N2)on1 [Example 807, (3S,7S,10R,13R)-13-benzyl-20-fluoro-10-((3-(5-fluoropyridin-2-yl)-1,2,4-oxadiazol-5-yl)methyl)-7-isobutyl-6,9-dimethyl-N-(2-(3-methylisoxazol-5-yl)ethyl)-1,5,8,11-tetraoxo-1,2,3,4,5,6,7,8,9,10,11,12,13,14-tetradecahydro-[1]oxa[4,7,10,14]tetraazacycloheptadecino[16,17-f]quinoline-3-carboxamide] |
| 116 nM | 399% | CC(C)C[C@H]1C(=O)N(C)[C@H](Cc2nc(-c3ccc(F)cn3)no2)C(=O)N[C@H](Cc2ccccc2)COc2ccc3ncc(F)cc3c2C(=O)N[C@H](C(=O)NCCc2nc(C3CC3)no2)CC(=O)N1C [Example 808, (3S,7S,10R,13R)-13-benzyl-N-(2-(3-cyclopropyl-1,2,4-oxadiazol-5-yl)ethyl)-20-fluoro-10-((3-(5-fluoropyridin-2-yl)-1,2,4-oxadiazol-5-yl)methyl)-7-isobutyl-6,9-dimethyl-1,5,8,11-tetraoxo-1,2,3,4,5,6,7,8,9,10,11,12,13,14-tetradecahydro-[1]oxa[4,7,10,14]tetraazacycloheptadecino[16,17-f]quinoline-3-carboxamide] |
| 10 nM | 391% | COc1cc(CCNC(=O)[C@@H]2CC(=O)N(C)[C@@H](CC(C)C)C(=O)N(C)[C@H](Cc3nc(C(F)(F)F)no3)C(=O)N[C@H](Cc3ccccc3)COc3cnc4ccc(F)cc4c3C(=O)N2)on1 [Example 809, (3S,7S,10R,13R)-13-benzyl-20-fluoro-7-isobutyl-N-(2-(3-methoxyisoxazol-5-yl)ethyl)-6,9-dimethyl-1,5,8,11-tetraoxo-10-((3-(trifluoromethyl)-1,2,4-oxadiazol-5-yl)methyl)-1,2,3,4,5,6,7,8,9,10,11,12,13,14-tetradecahydro-[1]oxa[4,7,10,14]tetraazacycloheptadecino[17,16-c]quinoline-3-carboxamide] |
| 161 nM | 285% | COc1cc(CCNC(=O)[C@@H]2CC(=O)N(C)[C@@H](CC(C)C)C(=O)N(C)[C@@H](Cc3nc(C(F)(F)F)no3)C(=O)N[C@H](Cc3ccccc3)COc3cnc4ccc(F)cc4c3C(=O)N2)on1 [Example 810, (3S,7S,10S,13R)-13-benzyl-20-fluoro-7-isobutyl-N-(2-(3-methoxyisoxazol-5-yl)ethyl)-6,9-dimethyl-1,5,8,11-tetraoxo-10-((3-(trifluoromethyl)-1,2,4-oxadiazol-5-yl)methyl)-1,2,3,4,5,6,7,8,9,10,11,12,13,14-tetradecahydro-[1]oxa[4,7,10,14]tetraazacycloheptadecino[17,16-c]quinoline-3-carboxamide] |

More lines, now with the values behind:

| SMILES | EC50 | Emax |
| --- | --- | --- |
| CC(C)C[C@H]1C(=O)N(C)[C@H](C)C(=O)N[C@H](Cc2ccccc2)COc2ccc3ncc(F)cc3c2C(=O)N[C@H](C(=O)NCCc2nc(C3CC3)no2)CC(=O)N1C [Example 800, (3S,7S,10R,13R)-13-benzyl-N-(2-(3-cyclopropyl-1,2,4-oxadiazol-5-yl)ethyl)-20-fluoro-7-isobutyl-6,9,10-trimethyl-1,5,8,11-tetraoxo-1,2,3,4,5,6,7,8,9,10,11,12,13,14-tetradecahydro-[1]oxa[4,7,10,14]tetraazacycloheptadecino[16,17-f]quinoline-3-carboxamide] | 266 nM | 352% |
| CC(C)C[C@H]1C(=O)N(C)[C@H](CC(F)F)C(=O)N[C@H](Cc2ccccc2)COc2ccc3ncc(F)cc3c2C(=O)N[C@H](C(=O)NCCc2noc(C3CC3)n2)CC(=O)N1C [Example 801, (3S,7S,10R,13R)-13-benzyl-N-(2-(5-cyclopropyl-1,2,4-oxadiazol-3-yl)ethyl)-10-(2,2-difluoroethyl)-20-fluoro-7-isobutyl-6,9-dimethyl-1,5,8,11-tetraoxo-1,2,3,4,5,6,7,8,9,10,11,12,13,14-tetradecahydro-[1]oxa[4,7,10,14]tetraazacycloheptadecino[16,17-f]quinoline-3-carboxamide] | 149 nM | 330% |
| CC(C)C[C@H]1C(=O)N(C)[C@@H](CC(F)F)C(=O)N[C@H](Cc2ccccc2)COc2ccc3ncc(F)cc3c2C(=O)N[C@H](C(=O)NCCc2noc(C3CC3)n2)CC(=O)N1C [Example 802, (3S,7S,10S,13R)-13-benzyl-N-(2-(5-cyclopropyl-1,2,4-oxadiazol-3-yl)ethyl)-10-(2,2-difluoroethyl)-20-fluoro-7-isobutyl-6,9-dimethyl-1,5,8,11-tetraoxo-1,2,3,4,5,6,7,8,9,10,11,12,13,14-tetradecahydro-[1]oxa[4,7,10,14]tetraazacycloheptadecino[16,17-f]quinoline-3-carboxamide] | 723 nM | 200% |
| CC[C@@H]1C(=O)N[C@H](Cc2ccccc2)COc2ccc3ncc(F)cc3c2C(=O)N[C@H](C(=O)NCCc2noc(C3CC3)n2)CC(=O)N(C)[C@@H](CC(C)C)C(=O)N1C [Example 803, (3S,7S,10R,13R)-13-benzyl-N-(2-(5-cyclopropyl-1,2,4-oxadiazol-3-yl)ethyl)-10-ethyl-20-fluoro-7-isobutyl-6,9-dimethyl-1,5,8,11-tetraoxo-1,2,3,4,5,6,7,8,9,10,11,12,13,14-tetradecahydro-[1]oxa[4,7,10,14]tetraazacycloheptadecino[16,17-f]quinoline-3-carboxamide] | 248 nM | 355% |
| CC(C)C[C@H]1C(=O)N(C)[C@H](Cc2nc(-c3ccc(F)cn3)no2)C(=O)N[C@H](Cc2ccccc2)COc2ccc3ncc(F)cc3c2C(=O)N[C@H](C(=O)NCCn2nnc(C3CC3)n2)CC(=O)N1C [Example 804, (3S,7S,10R,13R)-13-benzyl-N-(2-(5-cyclopropyl-2H-tetrazol-2-yl)ethyl)-20-fluoro-10-((3-(5-fluoropyridin-2-yl)-1,2,4-oxadiazol-5-yl)methyl)-7-isobutyl-6,9-dimethyl-1,5,8,11-tetraoxo-1,2,3,4,5,6,7,8,9,10,11,12,13,14-tetradecahydro-[1]oxa[4,7,10,14]tetraazacycloheptadecino[16,17-f]quinoline-3-carboxamide] | 115 nM | 360% |
| CC(C)C[C@H]1C(=O)N(C)[C@H](Cc2nc(C(F)(F)F)no2)C(=O)N[C@H](Cc2ccccc2)COc2cnc3ccc(F)cc3c2C(=O)N[C@H](C(=O)NCCc2noc(C3CC3)n2)CC(=O)N1C [Example 811, (3S,7S,10R,13R)-13-benzyl-N-(2-(5-cyclopropyl-1,2,4-oxadiazol-3-yl)ethyl)-20-fluoro-7-isobutyl-6,9-dimethyl-1,5,8,11-tetraoxo-10-((3-(trifluoromethyl)-1,2,4-oxadiazol-5-yl)methyl)-1,2,3,4,5,6,7,8,9,10,11,12,13,14-tetradecahydro-[1]oxa[4,7,10,14]tetraazacycloheptadecino[17,16-c]quinoline-3-carboxamide] | 19 nM | 333% |
| CC(C)C[C@H]1C(=O)N(C)[C@@H](Cc2nc(C(F)(F)F)no2)C(=O)N[C@H](Cc2ccccc2)COc2cnc3ccc(F)cc3c2C(=O)N[C@H](C(=O)NCCc2noc(C3CC3)n2)CC(=O)N1C [Example 812, (3S,7S,10S,13R)-13-benzyl-N-(2-(5-cyclopropyl-1,2,4-oxadiazol-3-yl)ethyl)-20-fluoro-7-isobutyl-6,9-dimethyl-1,5,8,11-tetraoxo-10-((3-(trifluoromethyl)-1,2,4-oxadiazol-5-yl)methyl)-1,2,3,4,5,6,7,8,9,10,11,12,13,14-tetradecahydro-[1]oxa[4,7,10,14]tetraazacycloheptadecino[17,16-c]quinoline-3-carboxamide] | 127 nM | 280% |
| CC(C)C[C@H]1C(=O)N(C)[C@H](Cc2nc(-c3ccc(F)cn3)no2)C(=O)N[C@H](Cc2ccccc2)COc2cnc3ccc(F)cc3c2C(=O)N[C@H](C(=O)NCCc2noc(C3CC3)n2)CC(=O)N1C [Example 813, (3S,7S,10R,13R)-13-benzyl-N-(2-(5-cyclopropyl-1,2,4-oxadiazol-3-yl)ethyl)-20-fluoro-10-((3-(5-fluoropyridin-2-yl)-1,2,4-oxadiazol-5-yl)methyl)-7-isobutyl-6,9-dimethyl-1,5,8,11-tetraoxo-1,2,3,4,5,6,7,8,9,10,11,12,13,14-tetradecahydro-[1]oxa[4,7,10,14]tetraazacycloheptadecino[17,16-c]quinoline-3-carboxamide] | 110 nM | 346% |
